Experimental data reported in patent publication US20260070887A1 (Shenzhen Zhongge Biological Technology Co., Ltd., priority 2022, published 2026).
Where two headings read alike, the source gives them in different places.

What was measured:
KIF18A = KIF18A (Homo sapiens (Human), UniProt Q8NI77); experiment: KIF18A ATPase activity under tubulin stimulation (ADP-Glo assay); assay type: biochemical; conditions: KIF18A 30 nM, ATP 150 μM, pig microtubules
Protocol: This experiment assesses the inhibitory effect of the compounds of the present disclosure on the KIF18A target according to the IC50 values by measuring the KIF18A ATPase activity under tubulin stimulation with the presence of the compounds.
• 1. Preparation of 30 mL of reaction buffer: • (1) 450 μL 1M Tris-HCl (pH=7.5)+300 μL 1M MgCl2+30 μL 10% Pluronic F-68 (ThermoFisher, 24040032-100 ml); • (2) adjusting pH to 7.5, and adding water to adjust the volume to 30 mL. • 2. Preparation of a 5 mg/mL pig microtubule (Microtubules; MT) (Cytoskeleton Inc, MT002) stock solution: • (1) 10 mL PM buffer=150 μL 1 M PIPES (pH 7.0)+20 μL 0.5 mM MgCl2+100 μL 2 mM Taxol (Cytoskeleton Inc, TXD01)+9730 μL water. • (2) MT ([…]): Adding 100 μL PM buffer to prepare a 5 mg/mL stock solution. Keeping the MT (Cytoskeleton Inc, MT002) at room temperature for 10-15 minutes, gently mixing and storing same at −80° C. • 3. Preparation of 2 mL of kinase buffer: 2 mL reaction buffer+1 μL 2 mM Taxol (Cytoskeleton Inc, TXD01)+12 μL 5 mg/mL MT (Cytoskeleton Inc, MT002). • 4. Preparation of 2×KIF18A (30 nM) (ChemPartner, CPB-P22-31645) working solution: 2.4 μL 10 μM KIF18A (ChemPartner, CPB-P22-31645)+800 μL 1× kinase buffer. • 5. Preparation of 2×ATP (150 μM) (Promega, G9101) working solution: 12 μL 10 mM ATP+800 μL 1× kinase buffer. • 6. 25 nL of compound was transferred to a 384-well plate using Echo650. • 7. 2.5 μL of 2×KIF18A from Step 4 (final concentration of 30 nM) was added to the 384-well plate and the plate was incubated at 25° C. for 15 minutes. • 8. 2.5 μL of 2×ATP from Step 5 (final concentration of 150 μM) was added to the 384-well plate and the plate was incubated at 25° C. for 15 minutes. • 9. 5 μL ADP-Glo™ Reagent (Promega, G9101) was added to the 384-well plate and the plate was incubated at 25° C. for 40 minutes. • 10. 10 μL of kinase detection reagent (Promega, G9101) was added to the 384-well plate and the plate was incubated at 25° C. for 40 minutes. • 11. Luminescence values were measured using the EnVision Xcite Multilabel Reader (PerkinElmer, 2105-0020).

OVCAR-3 cells = experiment: OVCAR-3 cell proliferation (Cell Titer-Glo, 10 days); assay type: cell-based, human
Protocol: The inhibitory effect on the KIF18A target by the compounds of the present disclosure was evaluated by testing the inhibitory effect on proliferation of OVCAR-3 cells by the compounds of the present disclosure.
The following method was used to determine the effect of the compounds of the present disclosure on the proliferation of human ovarian cancer cells Ovcar-3 (HTB-161, ATCC). Cells were cultured in RPMI-1640 complete medium containing 20% fetal bovine serum, 0.01 mg/mL bovine insulin, 100 U penicillin, and 100 μg/mL streptomycin. The Promega kit Cell Titer-Glo (Cat. No. G7572) was used in this method for test.
For specific steps, reference was made to the kit instructions, and the procedure was outlined below: Test compounds were dissolved in DMSO to prepare a 10 mM stock solution, which was diluted at the predetermined test concentrations, and the test compounds at different concentrations were added to a 384-well cell test plate using ECHO. In the plate pre-added with the test compounds, 400 OVCAR-3 cells in the logarithmic growth phase were seeded per well, ensuring the final concentration of the test compounds in the reaction system ranged between 0.12 nM and 10 μM. The co-culture was maintained in a cell culture incubator for 10 days. Before testing, the cell culture plate was equilibrated for 10 minutes at room temperature, 25 μL of Cell Titer-Glo was added to each well, and the mixture was shaken and mixed well and let stand for 5 minutes. The luminescence values for samples in various wells were read using a microplate reader in Luminescence mode.
The percentage of inhibition of cell proliferation by the test compound at each concentration was calculated by comparing with the values of the control group (0.1% DMSO). The IC50 values of the compounds were obtained by concentration-inhibition rate nonlinear regression analysis of the test compounds using GraphPad Prism 9.

Chain of KIF18A (Q8NI77 whole entry): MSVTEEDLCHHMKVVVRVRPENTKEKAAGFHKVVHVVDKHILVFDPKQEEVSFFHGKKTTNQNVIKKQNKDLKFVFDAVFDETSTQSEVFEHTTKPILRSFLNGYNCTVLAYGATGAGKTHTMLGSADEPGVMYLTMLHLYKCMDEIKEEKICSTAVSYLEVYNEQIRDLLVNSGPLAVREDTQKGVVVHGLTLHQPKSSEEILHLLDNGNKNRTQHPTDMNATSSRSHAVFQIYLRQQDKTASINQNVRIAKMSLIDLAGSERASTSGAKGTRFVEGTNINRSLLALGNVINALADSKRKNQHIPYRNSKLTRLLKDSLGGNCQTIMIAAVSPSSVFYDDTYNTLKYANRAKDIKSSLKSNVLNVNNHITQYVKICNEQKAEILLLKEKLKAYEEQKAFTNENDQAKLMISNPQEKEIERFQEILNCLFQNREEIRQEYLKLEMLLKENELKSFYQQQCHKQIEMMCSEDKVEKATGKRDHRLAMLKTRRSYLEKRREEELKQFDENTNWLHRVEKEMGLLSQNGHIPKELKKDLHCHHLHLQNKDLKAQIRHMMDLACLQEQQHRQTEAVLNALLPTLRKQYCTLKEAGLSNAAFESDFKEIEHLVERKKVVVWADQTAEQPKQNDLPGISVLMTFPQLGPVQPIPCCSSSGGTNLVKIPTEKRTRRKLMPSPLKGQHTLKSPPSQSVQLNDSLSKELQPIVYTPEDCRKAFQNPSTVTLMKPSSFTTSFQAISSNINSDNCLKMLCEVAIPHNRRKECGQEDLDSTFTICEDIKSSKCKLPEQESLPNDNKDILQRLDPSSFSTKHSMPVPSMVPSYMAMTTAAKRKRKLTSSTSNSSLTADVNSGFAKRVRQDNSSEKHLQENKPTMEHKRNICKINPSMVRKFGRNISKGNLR
Chain of KIF18A (P02550 whole entry partner): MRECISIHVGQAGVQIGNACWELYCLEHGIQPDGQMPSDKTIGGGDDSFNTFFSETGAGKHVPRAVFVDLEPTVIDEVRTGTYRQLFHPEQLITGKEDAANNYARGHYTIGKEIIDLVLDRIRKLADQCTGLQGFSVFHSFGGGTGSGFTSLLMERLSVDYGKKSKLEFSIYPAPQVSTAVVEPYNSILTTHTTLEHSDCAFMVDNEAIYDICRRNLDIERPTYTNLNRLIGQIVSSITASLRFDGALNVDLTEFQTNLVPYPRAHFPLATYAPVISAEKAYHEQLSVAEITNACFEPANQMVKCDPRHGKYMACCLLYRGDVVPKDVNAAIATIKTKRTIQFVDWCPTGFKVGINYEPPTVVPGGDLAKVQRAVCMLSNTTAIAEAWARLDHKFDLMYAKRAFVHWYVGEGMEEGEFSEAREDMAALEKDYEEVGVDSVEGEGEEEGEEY
Chain of KIF18A (P02554 whole entry partner): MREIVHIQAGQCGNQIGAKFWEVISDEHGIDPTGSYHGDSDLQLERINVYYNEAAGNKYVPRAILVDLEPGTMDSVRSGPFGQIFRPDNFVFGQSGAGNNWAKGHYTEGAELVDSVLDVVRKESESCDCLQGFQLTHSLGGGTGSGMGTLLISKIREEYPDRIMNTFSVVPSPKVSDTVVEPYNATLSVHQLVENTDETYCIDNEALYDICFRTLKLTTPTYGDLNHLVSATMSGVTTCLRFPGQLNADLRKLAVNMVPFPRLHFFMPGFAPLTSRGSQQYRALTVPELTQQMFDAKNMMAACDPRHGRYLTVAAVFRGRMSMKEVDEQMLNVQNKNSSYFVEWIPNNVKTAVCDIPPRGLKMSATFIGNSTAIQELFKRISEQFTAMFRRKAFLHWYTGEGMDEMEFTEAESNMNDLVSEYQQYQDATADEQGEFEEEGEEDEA

SMILES | IC50 (KIF18A) | IC50 (OVCAR-3 cells) | IC50 (OVCAR-3 cells; Homo sapiens, OVCAR-3, 240 h)
O=C(Nc1cccc2c1cc1n2CCC(F)(F)C1)c1ccc(NS(=O)(=O)CCO)cc1N1CCC2(CC1)CC2 [Example 128, 2-(6-azaspiro[2.5]oct-6-yl)-N-(8,8-difluoro-6,7,8,9-tetrahydropyridino[1,2-a]indol-1-yl)-4-{[(2-hydroxyethyl)sulfonamide]}benzamide] | ≤ 50 nM | ≤ 50 nM | 
O=C(Nc1ccc(OC(F)(F)F)c2c1cc1n2CCC(F)(F)C1)c1ccc(NS(=O)(=O)CCO)cc1N1CCC(=C(F)F)CC1 [Example 585] | 50 to 500 nM |  | 50 to 500 nM
CC1OCCn2c1cc1c(NC(=O)c3ccc(NS(=O)(=O)CCO)cc3N3CCC4(CC3)CC4)cccc12 (stereo not shown) [Compound 311-P2, 4-((2-hydroxyethyl)sulfonamido)-N-(1-methyl-3,4-dihydro-1H-[1,4]oxazinyl[4,3-a]indol-9-yl)-2-(6-azaspiro[2.5]oct-6-yl)benzamide] | ≤ 50 nM | ≤ 50 nM | 
COc1ccc(C(=O)Nc2ccc(NS(=O)(=O)CCO)cc2N2CCC(=C(F)F)CC2)c2cc3n(c12)CC(C)(C)OC3 [Example 566] | ≤ 50 nM | 50 to 500 nM | 
O=C(Nc1cccc2c1OCC1CC(F)(F)CCN21)c1ccc(NS(=O)(=O)CCO)cc1N1CCC2(CC1)CC2 (stereo not shown) [Compound 400, N-(8,8-difluoro-6,6a,7,8,9,10-hexahydrobenzo[b]pyrido[1,2-d][1,4]oxazin-4-yl)-4-((2-hydroxyethyl)sulfonamido)-2-(6-azaspiro[2.5]oct-6-yl)benzamide] | ≤ 50 nM |  | 50 to 500 nM
O=C(Nc1cc(F)cc2c1nc1n2CCOC1)c1ccc(NS(=O)(=O)CCO)cc1N1CCC(=C(F)F)CC1 [Example 369, 2-(4-(difluoromethylene)piperidin-1-yl)-N-(7-fluoro-3,4-dihydro-1H-benzo[4,5]imidazo[2,1-c][1,4]oxazin-9-yl)-4-((2-hydroxyethyl)sulfonamido)benzamide] | ≤ 50 nM |  | 50 to 500 nM
COc1ccc(NC(=O)c2ccc(NS(=O)(=O)CCO)cc2N2CCC3(CC2)CC3)c2cc3n(c12)CCC(F)(F)C3OC (stereo not shown) [Example 479, N-(8,8-difluoro-4,9-dimethoxy-6,7,8,9-tetrahydropyridino[1,2-a]indol-1-yl)-4-((2-hydroxyethyl)sulfonamido)-2-(6-azaspiro[2.5]oct-6-yl)benzamide] | 50 to 500 nM |  | 50 to 500 nM
COc1ccc(C(=O)Nc2ccc(NS(=O)(=O)CCO)cc2N2CCC3(CC2)CC3)c2cc3n(c12)CC(C)(C)OC3 [Example 565] | 50 to 500 nM | ≤ 50 nM | 
Cc1cc(NC(=O)c2ccc(NS(=O)(=O)CCO)cc2N2CCC(=C(F)F)CC2)c2cc3n(c2c1)CC(C)(C)OC3 [Example 467, 2-(4-(difluoromethylene)piperidin-1-yl)-4-((2-hydroxyethyl)sulfonamide)-N-(3,3,7-trimethyl-3,4-dihydro-1H-[1,4]oxazino[4,3-a]indol-9-yl)benzamide] | 50 to 500 nM | 50 to 500 nM | 
CC1(C)Cn2c(cc3c(NC(=O)c4ccc(NS(=O)(=O)CCO)cc4N4CCC(=C(F)F)CC4)ccc(Cl)c32)CO1 [Example 522, N-(6-chloro-3,3-dimethyl-3,4-dihydro-1H-[1,4]oxazino[4,3-a]indol-9-yl)-2-[4-(difluoromethylene)hexahydropyridin-1-yl]-4-{[(2-hydroxyethyl)sulfonamide]}benzamide] |  |  | 50 to 500 nM
O=C(Nc1ccnc(N2CCC(F)(F)CC2)c1)c1ccc(NS(=O)(=O)CCO)cc1OC1CCCCC1 [Example 22] | 50 to 500 nM |  | 
O=C(Nc1cccc2c1CCCCN2CC1CC1)c1ccc(NS(=O)(=O)CCO)cc1N1CCC2(CC1)CC2 [Example 12] | 500 to 5000 nM |  | 
COC1c2cc3c(NC(=O)c4ccc(NS(=O)(=O)CCO)cc4N4CCC(=C(F)F)CC4)ccc(C#N)c3n2CCC1(F)F (stereo not shown) [Compound 427, N-(4-cyano-8,8-difluoro-9-methoxy-6,7,8,9-tetrahydropyridino[1,2-a]indol-1-yl)-2-(4-(difluoromethylene)piperidin-1-yl)-4-((2-hydroxyethyl)sulfonamide)benzamide] |  |  | 50 to 500 nM
O=C(Nc1cccc2c1CCN2CC1CC1)c1ccc(NS(=O)(=O)CCO)cc1OC1CCC(F)(F)CC1 [Example 29, N-(1-(cyclopropylmethyl)indolin-4-yl)-2-((4,4-difluorocyclohexyl)oxy)-4-((2-hydroxyethyl)sulfonamide)benzamide] | > 5000 nM |  | 
O=C(Nc1cccc(N2CCC(F)(F)CC2)c1)Nc1ccc(NS(=O)(=O)CCO)cc1N1CCC2(CC1)CC2 [Example 147, N-(4-(3-(3-(4,4-difluoropiperidin-1-yl)phenyl)urea)-3-(6-azaspiro[2.5]octan-6-yl)phenyl)-2-hydroxyethane-1-sulfonamide] | 500 to 5000 nM |  | 
O=C(Nc1ncnc2c1ccn2CC1CC1)c1ccc(NS(=O)(=O)CCO)cc1N1CCC2(CC1)CC2 [Example 34, N-(7-(cyclopropylmethyl)-7H-pyrrolo[2,3-d]pyrimidin-4-yl)-4-((2-hydroxyethyl)sulfonamido)-2-(6-azaspiro[2.5]octan-6-yl)benzamide] | 500 to 5000 nM |  | 
CC(C)(C)Cn1ccc2c(NC(=O)c3ccc(NS(=O)(=O)CCO)cc3N3CCC4(CC3)CC4)cccc21 [Example 281, 4-((2-hydroxyethyl)sulfonamido)-N-(1-neopentyl-1H-indol-4-yl)-2-(6-azaspiro[2.5]octan-6-yl)benzamide] | 500 to 5000 nM |  | 
CC1(NS(=O)(=O)c2ccc(C(=O)Nc3cccc4c3ccn4CC3CC3)c(N3CCC4(CC3)CC4)c2)COC1 [Example 44, N-(1-(cyclopropylmethyl)-1H-indol-4-yl)-4-(N-(3-methyloxetan-3-yl)sulfamoyl)-2-(6-azaspiro[2.5]oct-6-yl)benzamide] | 50 to 500 nM |  | 
O=C(Nc1ccnc(N2CCC(F)(F)CC2)c1)c1ccc(NS(=O)(=O)CCO)cc1OC1CCOCC1 [Example 23, N-(2-(4,4-difluoropiperidin-1-yl)pyridin-4-yl)-4-((2-hydroxyethyl)sulfonamide)-2-((tetrahydro-2H-pyran-4-yl)oxy)benzamide] | > 5000 nM |  | 
[2H]C([2H])([2H])OC1c2cc3c(NC(=O)c4ccc(NS(=O)(=O)CCO)cc4N4CCC5(CC4)CC5)cccc3n2CCC1(F)F (single isomer, unassigned) [Compound 385-P1, N-(8,8-difluoro-9-(methoxy-d3)-6,7,8,9-tetrahydropyridino[1,2-a]indol-1-yl)-4-((2-hydroxyethyl)sulfonamido)-2-(6-azaspiro[2.5]oct-6-yl)benzamide] |  |  | 50 to 500 nM
O=C(Nc1ccnc2c1ccn2CC1CC1)c1ccc(NS(=O)(=O)CCO)cc1N1CCC2(CC1)CC2 [Example 33, N-(1-(cyclopropylmethyl)-1H-pyrrolo[2,3-b]pyridin-4-yl)-4-((2-hydroxyethyl)sulfanilamido)-2-(6-azaspiro[2.5]octan-6-yl)4-benzamide] | ≤ 50 nM |  | 
CC1(C)Cn2c(cc3c(NC(=O)c4cnc(NS(=O)(=O)CCO)cc4N4CCC5(CC4)CC5)cccc32)CO1 [Example 454, N-(3,3-dimethyl-3,4-dihydro-1H-[1,4]oxazino[4,3-a]indol-9-yl)-6-(2-hydroxyethylsulfonamide)-4-(6-azaspiro[2.5]octan-6-yl)nicotinamide] |  |  | 50 to 500 nM
